Measurements: paper PMC9696335, “Natural Inhibitors Targeting the Localization of Lipoprotein System in Vibrio parahaemolyticus” (International Journal of Molecular Sciences, 2022)

Legend:
LolB [1] = molecular target: T1, LolB (Vibrio parahaemolyticus, UniProt Q87RN6); experiment: intrinsic fluorescence quenching of purified LolB (Stern-Volmer Ksv; Kd only said to be micromolar); assay type: binding
T1 construct: Residues 26-212, N-terminal His6 tag

LolB [2] = molecular target: T1, LolB; experiment: intrinsic fluorescence quenching of purified LolB, one-site binding fit

T1 sequence (Q87RN6 17-203): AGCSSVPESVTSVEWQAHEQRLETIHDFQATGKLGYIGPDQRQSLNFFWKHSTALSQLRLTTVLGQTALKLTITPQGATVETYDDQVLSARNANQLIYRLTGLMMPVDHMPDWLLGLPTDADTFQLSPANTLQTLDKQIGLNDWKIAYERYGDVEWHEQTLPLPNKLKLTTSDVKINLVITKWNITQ

Row | Structure (SMILES) | Ksv (10^4 L/mol) (LolB [1]) | Kd (LolB [2])
1 | C[C@@H]1O[C@@H](OC[C@H]2O[C@@H](Oc3c(-c4ccc(OCCO)c(OCCO)c4)oc4cc(OCCO)cc(O)c4c3=O)[C@H](O)[C@@H](O)[C@@H]2O)[C@H](O)[C@H](O)[C@H]1O [troxerutin] | 14.2317 10^4 L/mol | –
2 | C[C@@H]1O[C@@H](OC[C@H]2O[C@@H](Oc3c(-c4ccc(O)c(O)c4)oc4cc(O)cc(O)c4c3=O)[C@H](O)[C@@H](O)[C@@H]2O)[C@H](O)[C@H](O)[C@H]1O [rutin] | 8.7014 10^4 L/mol | –
3 | C=C1C[C@@]23CC[C@H]4[C@@](C)(CCC[C@@]4(C)C(=O)O[C@@H]4O[C@H](CO)[C@@H](O)[C@H](O)[C@H]4O)[C@@H]2CC[C@]1(O[C@@H]1O[C@H](CO)[C@@H](O)[C@H](O)[C@H]1O[C@@H]1O[C@H](CO)[C@@H](O)[C@H](O)[C@H]1O)C3 [stevioside] | 6.1570 10^4 L/mol | –
4 | Oc1cc(O)c2c(c1)O[C@@H](c1ccc(O)c(O)c1)[C@@H](O[C@]1(c3ccc(O)c(O)c3)Oc3cc(O)cc(O)c3[C@@H](O)[C@H]1O)C2 [procyanidin] | – | 14.7 ± 4.65 µM
